For test [1], the system named is HCT-15. The test is described as follows: Antiproliferative activity against human colon cancer HCT-15 cell line. It counts as functional, cell-based.
For test [2], the system named is SW-620. Description: Inhibitory concentration against human colon cancer SW-620 cell line. It counts as functional, cell-based.
For test [3], the system named is OVCAR-5. Description: Antiproliferative activity against human cancer OVCAR-5 cell line. It counts as functional, cell-based.
The subject of test [4] is HOP-62. Description: Antiproliferative activity against human cancer HOP-62 cell line. It counts as functional, cell-based.
In test [5] the test system is HT-29. Description: Antiproliferative activity against Colon cancer HT-29 cell line. It counts as functional, cell-based, Homo sapiens.
Test [6] concerns A549. The test is described as follows: Antiproliferative activity against human cancer A-549 cell line. It counts as functional, cell-based.
In test [7] the test system is SK-OV-3. The test is described as follows: Antiproliferative activity against human cancer SKOV-3 cell line. It counts as functional, cell-based.
The test system of test [8] is HEp-2. Description: Antiproliferative activity against human cancer Hep-2 cell line. It counts as functional, cell-based.
Test [9] has as its system SNB-78. The test is described as follows: Antiproliferative activity against human cancer SNB-78 cell line. It counts as functional, cell-based.
For test [10], the system named is PC-3. Description: Antiproliferative activity against prostate cancer PC-3 cell line. It counts as functional, cell-based, Homo sapiens.
Test [11] deals with SiHa. The test is described as follows: Antiproliferative activity against human SIHA cell line. It counts as functional, cell-based.
Test [12] has as its system DU-145. Description: Antiproliferative activity against human cancer DU-145 cell line. It counts as functional, cell-based.

“And” between values parts separate entries of the source, which are not always exact repeats. Identical values can stand only once.

For `COc1ccc(C2NN=C(c3cc(OC)c(OC)c(OC)c3)C2O)cc1OC` (centres undefined), the half-maximal inhibitory concentration (IC50) came to 12 µM in [1]; 8.63 µM in [2] (Homo sapiens, SW-620); 8.76 µM in [3] (Homo sapiens, OVCAR-5); 10.7 µM in test [4] (Homo sapiens, HOP-62); 8.43 µM in test [5] (Homo sapiens, HT-29); 10 µM in test [6] (Homo sapiens, A549).
On to `COc1ccc(/C=C/C(=O)c2cc(OC)c(OC)c(OC)c2)cc1OC`, for which the IC50 in [7] is 6.09 µM; in [1] it was 7.95 µM; in [8], 6.15 µM; in test [9] (Homo sapiens, SNB-78), 22.8 µM; in test [2] (Homo sapiens, SW-620) it was 5.8 µM; in [3] (Homo sapiens, OVCAR-5) it was 8.3 µM. Moreover, the IC50 in [10] (Homo sapiens, PC-3) came out at 7.85 µM; in test [11] (Homo sapiens, SiHa), 9.35 µM; in test [4] (Homo sapiens, HOP-62), 8.12 µM; in test [5] (Homo sapiens, HT-29), 6.64 µM; in [6] (Homo sapiens, A549), 6.9 µM; in test [12] (Homo sapiens, DU-145), 9.21 µM.
`COc1cc(-c2nn(C(C)=O)c(-c3ccc4c(c3)OCO4)c2OC(C)=O)cc(OC)c1OC`: the half-maximal inhibitory concentration (IC50) was 39.1 µM in test [7]; 8.9 µM in test [1]; 61.6 µM in test [8]; 33 µM in test [9] (Homo sapiens, SNB-78); 18.1 µM in test [10] (Homo sapiens, PC-3); 58.1 µM in test [11] (Homo sapiens, SiHa). The half-maximal inhibitory concentration (IC50) came to 18.4 µM in [4] (Homo sapiens, HOP-62); 15.6 µM in test [5] (Homo sapiens, HT-29); 48 µM in [12] (Homo sapiens, DU-145).
With `COc1cc(-c2cc(-c3ccc4c(c3)OCO4)[nH]n2)cc(OC)c1OC`, the IC50 is 15.6 µM in test [1]; 34 µM in [8]; 74 µM in test [9] (Homo sapiens, SNB-78); 9.25 µM in [2] (Homo sapiens, SW-620); 33 µM in test [3] (Homo sapiens, OVCAR-5); 9.55 µM in test [10] (Homo sapiens, PC-3). The IC50 is 10 µM in test [11] (Homo sapiens, SiHa); 13.5 µM in test [4] (Homo sapiens, HOP-62); 6.01 µM in test [5] (Homo sapiens, HT-29); 8.85 µM in test [6] (Homo sapiens, A549); 8.56 µM in test [12] (Homo sapiens, DU-145).
For the compound `COc1cc(C2=NNC(c3ccc(Cl)cc3)C2O)cc(OC)c1OC` (centres undefined), the IC50 in [1] was determined as 9.45 µM; in test [2] (Homo sapiens, SW-620), 8.41 µM; in test [3] (Homo sapiens, OVCAR-5), 8.65 µM; in test [10] (Homo sapiens, PC-3) it was 34.6 µM; in test [11] (Homo sapiens, SiHa) it was 56.4 µM; in [4] (Homo sapiens, HOP-62) it was 20.4 µM. The IC50 in test [5] (Homo sapiens, HT-29) was found to be 11.1 µM; in test [6] (Homo sapiens, A549), 15.1 µM.
Turning to `COc1cc(C(=O)/C=C/c2ccc(F)cc2)cc(OC)c1OC`, the IC50 came to 11.7 µM in test [1]; 10 µM in test [8]; 13.8 µM in [9] (Homo sapiens, SNB-78); 18.3 µM in test [3] (Homo sapiens, OVCAR-5); 11.7 µM in [10] (Homo sapiens, PC-3); 7.92 µM in test [11] (Homo sapiens, SiHa). The IC50 was found to be 24.7 µM in test [4] (Homo sapiens, HOP-62) and 13.3 µM in test [12] (Homo sapiens, DU-145).
On to `COc1cc(C(=O)/C=C/c2ccc3c(c2)OCO3)cc(OC)c1OC`, for which the 50% inhibitory concentration (IC50) was 23.7 µM in test [1]; 10.1 µM in test [8]; 16.7 µM in [9] (Homo sapiens, SNB-78); 5.65 µM in test [3] (Homo sapiens, OVCAR-5); 11.7 µM in test [10] (Homo sapiens, PC-3); 12.8 µM in test [11] (Homo sapiens, SiHa). The IC50 in test [4] (Homo sapiens, HOP-62) was determined as 9.61 µM; in test [12] (Homo sapiens, DU-145) it was 19.8 µM.
As for `COc1cccc(C(=O)/C=C/c2cc(OC)c(OC)c(OC)c2)c1`, the half-maximal inhibitory concentration (IC50) in [1] came to 4.9 µM; in test [8] it was 13.7 µM; in test [9] (Homo sapiens, SNB-78), 10 µM; in test [3] (Homo sapiens, OVCAR-5) it was 9 µM; in test [10] (Homo sapiens, PC-3) it was 11.6 µM; in test [11] (Homo sapiens, SiHa) it was 10.9 µM. The half-maximal inhibitory concentration (IC50) in test [4] (Homo sapiens, HOP-62) came out at 10.1 µM; in test [5] (Homo sapiens, HT-29), 7.08 µM; in test [6] (Homo sapiens, A549), 8.07 µM; in test [12] (Homo sapiens, DU-145) it was 14.9 µM.
As to `COc1ccc(C2NN=C(c3cc(OC)c(OC)c(OC)c3)C2O)cc1` (centres undefined), the 50% inhibitory concentration (IC50) in test [1] came out at 0.96 µM; in test [8], 7.81 µM; in test [2] (Homo sapiens, SW-620), 2.67 µM; in test [3] (Homo sapiens, OVCAR-5) it was 13 µM; in test [10] (Homo sapiens, PC-3) it was 15.2 µM; in [11] (Homo sapiens, SiHa), 20.1 µM. Besides, the IC50 in test [4] (Homo sapiens, HOP-62) amounted to 0.94 µM; in test [5] (Homo sapiens, HT-29), 0.96 µM; in test [6] (Homo sapiens, A549) it was 1.07 µM.
For the compound `COc1cc(/C=C/C(=O)c2ccccc2)cc(OC)c1OC`, the IC50 in test [7] is 56.5 µM; in test [1], 15.8 µM; in test [8], 11.9 µM; in test [2] (Homo sapiens, SW-620) it was 8.45 µM; in [11] (Homo sapiens, SiHa), 20.8 µM; in test [4] (Homo sapiens, HOP-62), 16.6 µM. Further, the half-maximal inhibitory concentration (IC50) in test [5] (Homo sapiens, HT-29) worked out at 12 µM; in test [6] (Homo sapiens, A549), 8.96 µM.
With `COc1cc(C2=NNC(c3cc(OC)c(OC)c(OC)c3)C2O)cc(OC)c1OC` (centres undefined), the IC50 was found to be 8.35 µM in [1]; 13.6 µM in [2] (Homo sapiens, SW-620); 20.6 µM in [3] (Homo sapiens, OVCAR-5); 108 µM in test [10] (Homo sapiens, PC-3); 83 µM in test [11] (Homo sapiens, SiHa); 20.4 µM in [4] (Homo sapiens, HOP-62). Further, the IC50 in [5] (Homo sapiens, HT-29) was 7.41 µM; in [6] (Homo sapiens, A549), 15.6 µM; in test [12] (Homo sapiens, DU-145), 94.1 µM.
Regarding `COc1ccc(-c2cc(-c3cc(OC)c(OC)c(OC)c3)[nH]n2)cc1`, the IC50 in [9] (snb-78) is 21 µM and 50 µM; in test [2] (Homo sapiens, SW-620), 5.15 µM; in test [2] (sw-620) it was 3.41 µM; in test [3] (Homo sapiens, OVCAR-5), 9.54 µM; in [3] (ovcar-5), 7.85 µM; in [10] (Homo sapiens, PC-3), 15.8 µM. Also, the half-inhibitory concentration (IC50) in test [10] (pc-3) was 11.1 µM; in test [11] (Homo sapiens, SiHa), 15.9 µM; in test [11] (siha), 14.5 µM; in test [4] (hop-62), 4.81 µM and 0.65 µM; in test [5] (ht-29) it was 2.95 µM and 0.62 µM; in test [6] (a549), 4.35 µM and 1.01 µM. Moreover, the IC50 in [12] (Homo sapiens, DU-145) is 24 µM; in test [12] (du-145), 27 µM.
For `COc1cc(-c2cc(-c3ccc(Cl)cc3)[nH]n2)cc(OC)c1OC`, the IC50 came out at 6.45 µM in test [1]; 14 µM in test [9] (Homo sapiens, SNB-78); 4.96 µM in [2] (Homo sapiens, SW-620); 8.61 µM in test [3] (Homo sapiens, OVCAR-5); 12.3 µM in [4] (Homo sapiens, HOP-62); 8.09 µM in test [5] (Homo sapiens, HT-29). Also, in test [6] (Homo sapiens, A549), inhibition was half-maximal at 15.8 µM (IC50).
